Where no end group is shown, it is not given here. [ ]: non-standard residue; d: D form. Dopa = N[C@@H](Cc1ccc(O)c(O)c1)C(=O)O
Key:
[1] = test system: total splenocytes restimulated with MHC class-1 epitope KVPRNQDWL (human gp100); type: in vivo, C57-B16 mice; settings: for CD8 immune response with various melanin precursors: 10 μg hgp100 epitope co-incubated with melanin precursor, pH 8.5 Tris, + 10 μg CpG-28, subcutaneous; for number of IFNy-secreting lymphocytes mean +/− SD: gp100 peptide 10 μg/mouse + L-Dopa 40 μg/mouse incubated 18 hours aerated, mixed with the TLR9 agonist
Description: (§1) […] After 2 immunizations, the CD8+immune response was evaluated on day 14 using a gamma interferon (IFNg)-secretion Elispot assay, after restimulation of total splenocytes with the relevant MHC class-1 epitope ([…] (SEQ ID NO: 2) for Ovalbumine or […] (SEQ ID NO: 3) for human gp100)

[2] = test system: total splenocytes restimulated with MHC class-1 epitope SIINFEKL (Ovalbumine); assay: IFNg-secretion Elispot of splenocytes after immunization, restimulation with Ovalbumine epitope; type: in vivo, C57-B16 mice; settings: for CD8 immune response (IFNg spots): Ovalbumine epitope alone or mixed with 10 μg DOPA, with or without 18 hours oxygen incubation, + CpG-28; for CD8 immune response (IFNg spots) / CD8 / CTL immune response: day 14; for CD8 / CTL immune response: 1 μg peptide + 10 μg CpG-28, day 0 & day 7; for immune response, Dopamine as melanin precursor: peptides with Dopamine; for immune response after 2 immunizations, Dopa as melanin precursor: 3.6 μg peptide co-incubated 18 hours with 100 μg DOPA pH 8.5
Description: as §1

[3] = Solubility and stability of oxidized Dopa or Dopamine solutions; type: physicochemical; settings: for precipitation under centrifugation: 2 mg/ml oxidized solution, Dopa: oxygen at pH8.5, 16 000 g for 30 minutes; for aggregates under light microscopy: 2 mg/ml solution oxidized 20 hours, with or without pOVA 0.1 mg/ml
Description: Dopa (2 mg/ml) or Dopamine (2 mg/ml) solutions were incubated with or without the pOVA (0.1 mg/ml) at pH 7.4 or 8.5, and with different oxidizing agents (O2, ammonium persulfate) for 20 hours. All solutions darkened within a few hours. […] Under centrifugation, the dopamine solutions precipitated, and some dark material remained adherent to the tubes.

[4] = test system: IFNγ-secreting lymphocytes; assay: Elispot after immunization with formulations oxidized by different agents (Example 2, Table 1); type: in vivo, mice; settings: H2O2 or ammonium persulfate as oxidant
Description: (§2) C57-B16, 5-week old, mice were immunized twice (on day 1 and day 7) with the different formulations combined to a Toll-like Receptor 9 (TLR-9) agonist (10 μg of the CpG-28 oligonucleotide, […] (SEQ ID NO: 1)). After 2 immunizations, the CD8+immune response was evaluated on day 14 using a gamma interferon (IFNg)-secretion Elispot assay, after restimulation of total splenocytes with the relevant MHC class-1 epitope ([…] (SEQ ID NO: 2) for Ovalbumine or […] (SEQ ID NO: 3) for human gp100)
Other oxidizing agents such as hydrogen peroxide (H2O2) or ammonium persulfate (APS) can be used (FIG. 3).

[5] = 10 kD filtration and SDS-PAGE of melanin-EphA2 complex; type: physicochemical
Description: FIG. 11: SDS-PAGE (16% polyacrylamide gel) of various preparations: lane MW: molecular weight marker; lane “Ctrl EphA2”: control peptide EphA2 alone (SEQ ID NO: 9); lane “Filtrate”: filtrate of complex melanin-EphA2 after filtration on a 10 kD filter; lane “Retentate”: retentate of complex melanin-EphA2 after filtration on a 10 kD filter, resuspension, dissolution and heating in loading buffer containing SDS. (Melanin-EphA2 was obtained by co-incubating EphA2 peptide with L-Dopa (weight ration 1:10) in arerated conditions)
A solution of L-Dopa was mixed with an EPHA2 peptide ([…], SEQ ID NO: 9) at a weight ratio L-Dopa:epitope of 1:4. The mixture was then oxidized at pH 8.5 in aerated conditions.

[6] = Thin-layer chromatography of peptide and oxidized Dopa (complex formation); type: physicochemical; settings: 72-hour incubation pH 8.5; hgp100 1 mg/ml, Dopa 10 mg/ml
Description: FIG. 8: Thin-layer chromatography (TLC) after a 72-hour incubation at pH 8.5 (Tris buffer). Left: hgp100 (SEQ ID NO: 3). only; middle: hgp100 (1 mg/ml) and Dopa (10 mg/ml), co-incubated with O2; right: hgp100 (1 mg/ml) added after Dopa (10 mg/ml) had been incubated with O2. […] (TLC was performed on aluminium foils, coated with a thin layer of silica gel as the stationary phase. After the samples have been loaded, a mixture of 1-Butanol/acetic acid/H2O (2/1/1) was used as the mobile phase. The TLC plates were then sprayed with ninhydrin reagent)
FIG. 9: Thin-layer chromatography (TLC) after a 72-hour incubation at pH 8.5 (Tris buffer). Left: hgp100 (, SEQ ID NO: 3) only; other lanes: hgp100 (1 mg/ml) incubated with various doses of Dopa (Dopa/hgp100 weight ratios: from 1/5 to 10/1). […] (TLC: similar conditions as FIG. 8).
In vitro experiments with Thin-layer chromatography (TLC) support the hypothesis that the incubation of the peptide while the catechol is being oxidized modifies the characteristic of the final formulation and that a complex is formed between the two entities (FIG. 8).

[7] = test system: viral epitope gPr73 (SFAVATTAL); assay: CD8 immune response to viral epitope gPr73 variants co-incubated with L-Dopa; type: in vivo; settings: Balb/c mice; peptide co-incubated with L-Dopa, mixed to CpG-28
Description: (§3) Adding arginines (R) or lysines (K) to the NH2-terminal end of the peptides enhanced the immune response when compared to unmodified Trp2 (animals were immunized once with formulations consisting of the peptide (10 μg/mouse) co-incubated with L-Dopa (100 μg/mouse), then mixed to CpG-28 (10 μg/mouse). The CD8 immune responses were assessed on day 8).
Similar data were obtained with a viral epitope in Balb/c mice (gPr73: SFAVATTAL, SEQ ID NO: 8). […] In both cases, if a glutamate (E) was added next to the lysine, the efficacy was reduced (Table 2).

[8] = test system: MHC I epitope of Trp2 (VYDFFVWL); assay: CD8 immune response to Trp2 epitope variants co-incubated with L-Dopa; type: in vivo, mice; settings: peptide 10 μg/mouse co-incubated with L-Dopa 100 μg/mouse, then mixed to CpG-28 10 μg/mouse; immunized once; day 8
Description: as §2, §3

[9] = test system: anti-ovalbumine antibodies; assay: Humoral response: anti-ovalbumine antibody titers; type: in vivo, C57/Bml6 mice; settings: day 14
Description: Ovalbumin protein (1 μg) was mixed to Dopa (1 μg) at pH 7.4, incubated for 4 hours with APS (0.3 μg), and injected subcutaneously with 10 μg in C57/Bml6 mice on day 0 and day 7.

[10] = 1 μg mixed to Dopa 1 μg pH 7.4, 4 hours APS 0.3 μg, subcutaneous day 0 and day 7

NC(Cc1cc(O)c(O)cc1O)C(=O)O (stereo not shown) [6-hydroxydopa, 6-Hydroxy-DOPA]
CD8 immune response with various melanin precursors ([1]; 18 hours oxygen): significant CD8 immune response

CC(C)(C)OC(=O)N[C@@H](Cc1ccc(O)c(O)c1)C(=O)O [Boc-Dopa, N-(tert-Butyloxycarbonyl)-L-dopa]
CD8 immune response with various melanin precursors ([1]; 18 hours oxygen): reduced magnitude

N[C@H](Cc1ccc(O)c(O)c1)C(=O)O [D-Dopa, D-3,4-dihydroxyphenylalanine]
CD8 immune response with various melanin precursors ([1]; 18 hours oxygen): significant CD8 immune response

NCCc1ccc(O)c(O)c1 [Dopamine]
CTL immune response ([2]; long OVA peptide combined to Dopamine, incubated 4 hours with APS, + 10 μg CpG-28): triggered an immune response
precipitation under centrifugation [3]: precipitated
aggregates under light microscopy [3]: large aggregates were seen under light microscopy
CD8 immune response with various melanin precursors ([1]; 18 hours oxygen): reduced magnitude

N[C@@H](Cc1ccc(O)c(O)c1)C(=O)O [L-Dopa, L-3,4-dihydroxyphenylalanine]
CD8 immune response (IFNg spots) [2]: able to induce IFNg spots
precipitation under centrifugation [3]: did not precipitate
aggregates under light microscopy [3]: no aggregates can be seen
filterability of the oxidized solution ([3]; incubated with oxygen at pH8.5): can be filtered through a 0.2 μm filter, but not through a 100 kDalton-cut off filter
stability of the oxidized solution ([3]; incubated with oxygen at pH8.5): stable for several weeks
CD8 immune response ([1]; 10 μg hgp100 epitope co-incubated with 100 μg DOPA pH 8.5, 18 hours oxygen, + CpG-28): significant CD8 immune response
CD8 immune response with various melanin precursors ([1]; 18 hours oxygen): significant CD8 immune response
optimal molar ratio of oxidant/Dopa for vaccine efficacy [4]: around 1/4

Oc1cccc2cccc(O)c12 [di-hydroxynaphtalene]
CD8 immune response with various melanin precursors ([1]; 18 hours oxygen): significant CD8 immune response

D-pOVA: Ovalbumine epitope synthesized with a DOPA at the beginning of the peptide ([Dopa]SIINFEKL)
CD8 / CTL immune response [2]: strong CTL immune responses

FSHHNIIRL (also: oxidized with L-Dopa to melanin) [EPHA2 peptide]
peptide from retentate heated in loading buffer containing SDS (SDS-page) ([5]; 16% polyacrylamide gel): got dissociated from melanin
peptide in the filtrate after 10 kD filtration ([5]; peptide oxidized with L-Dopa at pH 8.5 in aerated conditions): no peptide could detected in the filtrate

KVPRNQDWL (human gp100 epitope) [hgp100]
mean number of IFNγ-secreting lymphocytes +/−SD ([1]; C57BL/6 mice, gp100 10 μg/mouse, with or without L-Dopa 40 μg/mouse (18 hours aerated), combined to poly I:C 10 μg/mouse): 1+/−1
minimal dose of the epitope required to induce CTLs ([1]; gp100-melanin formulation): 0.5 µg
IFNγ-secreting lymphocytes when combined with CpG ([1]; mixed with TLR9 agonist CpG-28, n=8 mice/group): not
CTL response, epitope added after L-Dopa had been oxidized instead of before ([1]; mouse, in vivo): a reduction in the CTL response was observed
free peptide on TLC, Dopa and peptide co-incubated with oxidizing agent [6]: not seen any more and not
free peptide on TLC, peptide added after Dopa had been oxidized [6]: Free peptide was seen

SFAVATTAL (Viral epitope of gPr73)
number of IFNy-secreting lymphocytes mean +/− SD [7]: 5 +/− 4

SIINFEKL [pOVA]
CD8 / CTL immune response [2]: did not trigger any significant CD8 immune response
CD8 immune response (IFNg spots) [2]: did not trigger any significant CD8 immune response
amount of epitope sufficient to detect an immune response ([2]; epitope with DOPA model, data not shown): ≤ 10 ng

SMLVLLPDEVSGLEQLESIINFEKLTEWTS (long OVA peptide) [SEQ ID NO:4]
immune response, Dopamine as melanin precursor [2]: highest immune response

SMLVLLPKKVSGLKQLESIINFEKLTKWTS (positive long OVA peptide) [SEQ ID NO: 6, long OVA peptide modified to be positively charged]
immune response after 2 immunizations, Dopa as melanin precursor ([2]; + 10 μg CpG-28): strong
immune response, Dopamine as melanin precursor [2]: lowest one

SMLVLLPKSVSGLSQLESIINFEKLTSWTS (neutral long OVA peptide) [SEQ ID NO: 5, long OVA peptide modified to be neutral]
immune response after 2 immunizations, Dopa as melanin precursor ([2]; + 10 μg CpG-28): intermediate
immune response, Dopamine as melanin precursor [2]: intermediate

TAAACGTTATAACGTTACGACGTCAT (listed as DNA, chemistry not given here) [CpG-28]
immune responses, adjuvant added before versus after oxidation ([1]; L-DOPA 100 μg + hgp100 epitope, 18 hours oxygen): similar
number of IFNy-secreting lymphocytes mean +/− SD [1]: 211 +/− 83

TCCATGACGTTCCTGACGTT [compound 1826]
number of IFNy-secreting lymphocytes mean +/− SD [1]: 134 +/− 54

TGACTGTGAACGTTCGAGATGA [ISS]
number of IFNy-secreting lymphocytes mean +/− SD [1]: 147 +/− 63

VYDFFVWL (MHC I epitope of Trp2)
number of IFNy-secreting lymphocytes mean +/− SD [8]: 30 +/− 34

pOVA-D: Ovalbumine epitope synthesized with a DOPA at the end of the peptide (SIINFEKL[Dopa])
CD8 / CTL immune response [2]: strong CTL immune responses

B1: Ovalbumin protein: Ovalbumin protein mixed to Dopa at pH 7.4 and incubated with APS (composition melanin/antigen) (protein)
chain: GSIGAASMEFCFDVFKELKVHHANENIFYCPIAIMSALAMVYLGAKDSTRTQINKVVRFDKLPGFGDSIEAQCGTSVNVHSSLRDILNQITKPNDVYSFSLASRLYAEERYPILPEYLQCVKELYRGGLEPINFQTAADQARELINSWVESQTNGIIRNVLQPSSVDSQTAMVLVNAIVFKGLWEKAFKDEDTQAMPFRVTEQESKPVQMMYQIGLFRVASMASEKMKILELPFASGTMSMLVLLPDEVSGLEQLESIINFEKLTEWTSSNVMEERKIKVYLPRMKMEEKYNLTSVLMAMGITDVFSSSANLSGISSAESLKISQAVHAAHAEINEAGREVVGSAEAGVDAASVSEEFRADHPFLFCIKHIATNAVLFFGRCVSP
titer of anti-ovalbumine antibodies IgG1 [9, 10]: 1/8000
titer of anti-ovalbumine antibodies IgG2b [9, 10]: 1/5250
type of immune response (IgG subtypes) [9]: mixed Th1 and Th2 immune response
